Measured values from patent publication US20240400549A1, “COMPOUNDS AND THEIR USES FOR TREATING NEURODEGENERATIVE DISEASE” (Academia Sinica, priority 2021, published 2024).

Experiments:
[1] = target: T1, endogenous TDP-43 protein (FL-TDP-43) (Mus musculus, UniProt Q921F2); assay: Level of endogenous TDP-43 protein (FL-TDP-43) in Neuro-2a cells; type: cell-based; details: mock control 0.91±0.07
T1 construct: the level of endogenous TDP-43 protein (FL-TDP-43); endogenous in cells; host or cells: Neuro-2a (mouse neuroblastoma), also transfected with eGFP-C-TDP-43
T1 sequence (Q921F2 whole entry): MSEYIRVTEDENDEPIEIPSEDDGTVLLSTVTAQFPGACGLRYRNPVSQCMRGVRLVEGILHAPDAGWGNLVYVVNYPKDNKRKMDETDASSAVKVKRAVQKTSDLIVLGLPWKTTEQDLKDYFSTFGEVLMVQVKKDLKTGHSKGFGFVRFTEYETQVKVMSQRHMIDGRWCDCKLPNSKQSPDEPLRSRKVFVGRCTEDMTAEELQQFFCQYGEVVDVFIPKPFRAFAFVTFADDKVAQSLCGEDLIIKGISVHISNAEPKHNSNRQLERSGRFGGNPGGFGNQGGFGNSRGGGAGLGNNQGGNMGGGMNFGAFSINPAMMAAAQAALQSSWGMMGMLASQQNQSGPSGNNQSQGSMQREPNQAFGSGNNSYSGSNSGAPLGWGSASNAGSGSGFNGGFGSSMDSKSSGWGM
Protocol: Mouse neuroblastoma cell line (Neuro-2a) were cultured in Dulbecco's modified Eagle's medium (DMEM; Gibco) containing 2×10^−3 M glutamine, 10% heat inactivated fetal bovine serum (FBS), and 100 U mL^−1 penicillin-streptomycin (Gibco) at 37° C. in a humidified incubator containing 5% CO2. Alternatively, Neuro-2a cells were cultured in Dulbecco's modified Eagle's medium (DMEM; Invitrogen, Carlsbad, CA, USA) supplemented with 10% heat-inactivated FBS. The cells were incubated in a humidified incubator at 37° C. with 10% CO2. Transfection was performed using T-Pro NTR II (Ji-Feng Biotechnology, Taiwan) following the manufacturer's protocol.
Neuro-2a cells were seeded in a 6-well plate at a concentration of 2×10^5 cells/well and incubated overnight. Once the cells were attached, Neuro-2a cells were transfected with the eGFP-C-TDP-43 plasmid (2.2 μg) using Turbofect transfection reagent (Invitrogen) and treated with or without 5 μM test compound after 2 h transfection. After incubation for another 22 h, the transfected cells were harvested by RIPA buffer containing protease inhibitor (Roche) and sonicated on ice for 10 seconds. […] Aggregated eGFP-C-TDP-43 protein trapped by the CA membranes was determined by immunoblotting. […]
Proteins were separated using 12% Tris-glycine SDS-PAGE. […] The signals were visualized with luminescence (iBright™ FL1000 instrument, Invitrogen). […]

[2] = system: Neuro-2a cells; assay: Cytotoxicity of compounds in Neuro-2a cells; type: cell-based, mouse; details: 5 μM concentration

level of endogenous TDP-43 protein (FL-TDP-43) [1]: 1.11±0.14
SMILES: CN(C)c1ccc(-c2nc3ccc(OCCOCCOCCNc4cccc5c4C(=O)N(C4CCC(=O)NC4=O)C5=O)cc3s2)cc1 (centres unmarked) [I-1b, 4-((2-(2-(2-((2-(4-(dimethylamino)phenyl)benzo[d]thiazol-6-yl)oxy)ethoxy)ethoxy)ethyl)amino)-2-(2,6-dioxopiperidin-3-yl)isoindoline-1,3-dione]
cytotoxicity comparing to mock group of Neuro-2a cells [2]: neglectable cytotoxicity
